Legend:
MC2R [1] = molecular target: T1, MC2R (Homo sapiens, UniProt Q01718); experiment: MC2R antagonist affinity / ACTH binding to the receptor
[2] = system: other human melanocortin receptor subtypes; experiment: Selectivity over other melanocortin receptor subtypes; assay type: binding; settings: MC2R vs other subtypes
MC2R [3] = molecular target: T1, MC2R; experiment: ACTH-mediated G-protein activation and cAMP production; assay type: biochemical
5-HT1B receptor = 5-HT1B receptor (Homo sapiens, UniProt P28222); experiment: Screen for potential off-target activities; assay type: biochemical
5-HT1B receptor, sequence (P28222 whole entry): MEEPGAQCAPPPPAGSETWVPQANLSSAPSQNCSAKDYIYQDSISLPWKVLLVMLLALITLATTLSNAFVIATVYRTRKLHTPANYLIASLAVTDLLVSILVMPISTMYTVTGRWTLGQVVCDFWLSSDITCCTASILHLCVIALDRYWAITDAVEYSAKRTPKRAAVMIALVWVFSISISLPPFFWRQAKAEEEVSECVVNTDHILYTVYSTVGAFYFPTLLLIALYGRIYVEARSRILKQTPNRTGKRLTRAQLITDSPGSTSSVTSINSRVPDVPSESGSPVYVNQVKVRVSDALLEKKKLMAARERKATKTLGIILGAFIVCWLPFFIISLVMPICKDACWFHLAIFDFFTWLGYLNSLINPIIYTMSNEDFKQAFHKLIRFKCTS

[4] = In vitro metabolism in plasma, liver microsomes and liver S9; assay type: in vitro ADME, various species (including human); settings: liver microsomes, liver S9
Text: (§1) In vitro studies evaluated the metabolism of Compound 1 in plasma, liver microsomes, and/or 9000 g supernatant fraction of the liver homogenate (liver S9) from various species (including human).

CYP2C8 = molecular target: T2, CYP2C8 (Homo sapiens, UniProt P10632); experiment: CYP involvement in metabolic clearance; assay type: in vitro ADME
T2 sequence (P10632 1-490): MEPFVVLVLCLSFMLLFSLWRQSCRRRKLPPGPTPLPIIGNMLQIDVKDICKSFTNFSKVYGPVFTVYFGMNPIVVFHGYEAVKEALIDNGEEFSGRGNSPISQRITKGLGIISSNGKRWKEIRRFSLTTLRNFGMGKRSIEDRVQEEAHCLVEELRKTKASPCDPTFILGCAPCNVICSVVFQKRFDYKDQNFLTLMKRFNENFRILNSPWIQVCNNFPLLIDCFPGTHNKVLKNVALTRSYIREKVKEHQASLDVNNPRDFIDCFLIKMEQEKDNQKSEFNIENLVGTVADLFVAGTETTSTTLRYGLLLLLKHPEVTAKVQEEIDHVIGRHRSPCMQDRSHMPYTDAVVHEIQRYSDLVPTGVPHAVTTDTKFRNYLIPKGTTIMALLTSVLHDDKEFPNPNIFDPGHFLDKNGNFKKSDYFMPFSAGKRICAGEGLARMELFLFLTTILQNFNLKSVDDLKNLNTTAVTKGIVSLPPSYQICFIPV
Text: as §1

CYP2D6 = CYP2D6 (Homo sapiens, UniProt P10635); experiment: CYP involvement in metabolic clearance; assay type: in vitro ADME
CYP2D6, sequence (P10635 whole entry): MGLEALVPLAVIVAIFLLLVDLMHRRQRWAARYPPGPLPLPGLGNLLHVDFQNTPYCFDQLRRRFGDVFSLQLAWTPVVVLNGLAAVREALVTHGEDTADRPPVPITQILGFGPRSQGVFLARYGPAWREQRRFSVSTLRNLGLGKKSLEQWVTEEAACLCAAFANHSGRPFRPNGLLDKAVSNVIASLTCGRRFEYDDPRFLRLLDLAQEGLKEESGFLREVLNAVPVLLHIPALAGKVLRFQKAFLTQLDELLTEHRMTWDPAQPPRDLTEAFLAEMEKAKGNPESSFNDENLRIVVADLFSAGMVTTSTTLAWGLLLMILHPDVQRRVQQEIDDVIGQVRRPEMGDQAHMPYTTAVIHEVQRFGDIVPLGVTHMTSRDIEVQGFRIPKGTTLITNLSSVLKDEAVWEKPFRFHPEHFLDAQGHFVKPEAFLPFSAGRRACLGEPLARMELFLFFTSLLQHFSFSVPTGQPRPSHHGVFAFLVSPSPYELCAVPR
Text: as §1

CYP3A4 = CYP3A4 (Homo sapiens, UniProt P08684); experiment: CYP involvement in metabolic clearance; assay type: in vitro ADME
CYP3A4, sequence (P08684 whole entry): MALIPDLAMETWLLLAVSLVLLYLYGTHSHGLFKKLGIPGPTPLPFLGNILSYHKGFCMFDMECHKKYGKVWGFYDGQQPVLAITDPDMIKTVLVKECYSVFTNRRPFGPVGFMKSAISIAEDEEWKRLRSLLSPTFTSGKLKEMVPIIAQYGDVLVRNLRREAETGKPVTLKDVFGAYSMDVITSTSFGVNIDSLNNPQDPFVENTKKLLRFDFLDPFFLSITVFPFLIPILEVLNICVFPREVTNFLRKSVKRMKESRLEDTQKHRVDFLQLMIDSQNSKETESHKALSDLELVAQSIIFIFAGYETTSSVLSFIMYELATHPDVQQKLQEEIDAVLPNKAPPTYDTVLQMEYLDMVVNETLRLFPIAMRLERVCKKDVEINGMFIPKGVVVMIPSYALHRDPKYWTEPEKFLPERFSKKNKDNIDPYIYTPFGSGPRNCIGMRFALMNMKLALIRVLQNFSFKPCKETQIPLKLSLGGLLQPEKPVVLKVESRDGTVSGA
Text: as §1

[5] = system: corticosterone secretion after ACTH (1-24); experiment: ACTH (1-24) challenge, corticosterone secretion in rats; assay type: in vivo, rat
corticosterone [6] = experiment: ACTH excess model: rats given exogenous ACTH (1-24) via subcutaneous osmotic pump over 7 days; assay type: in vivo, rat; settings: ACTH (1-24) osmotic pump, daily oral doses
Method: (§2) Disease models mimicking states of ACTH excess and hypercortisolism included rats administered exogenous ACTH (1-24) via subcutaneous osmotic pump over 7 days and mice implanted with ACTH-secreting corticotroph AtT-20 tumor cells; animals received daily oral doses of placebo or Compound 1. […] However, six days after discontinuation of the highest dose of Compound 1 (75 mg/kg for 15 days), Ang-II stimulated aldosterone was suppressed, but sodium and potassium levels were normal.

corticosterone [7] = experiment: ACTH excess model: mice implanted with ACTH-secreting corticotroph AtT-20 tumor cells; assay type: in vivo, mouse; settings: mice with AtT-20 tumor cells, daily oral doses
Method: as §2

aldosterone = experiment: ACTH- and Angiotensin-II-stimulated aldosterone in vivo
Method: as §2

[8] = Repeat dose general toxicity study in rat; assay type: in vivo
Method: (§3) The overall nonclinical safety of Compound 1 was assessed in 28-day and 3-month repeat dose general toxicity studies in rat and dog and in a battery of in vitro and in vivo genotoxicity and safety pharmacology studies.

[9] = Repeat dose general toxicity study in dog; assay type: in vivo
Method: as §3

[10] = In vitro and in vivo genotoxicity studies; settings: in vitro and in vivo battery
Method: as §3

[11] = Safety pharmacology studies
Method: as §3

[12] = Effect of food on absorption; assay type: in vivo, human; settings: oral tablet
Method: Participants will receive Compound 1 at the appropriate dose for their cohort as a single daily dose for 10 days at approximately 8 am. Tablets will be taken orally with 240 mL of water.

[13] = Previous study in healthy volunteers; assay type: in vivo, human
Text: It has therefore been identified as an AESI in this study and may lead to dose limiting toxicity.

[14] = six days after discontinuation of 75 mg/kg for 15 days

T1 sequence (Q01718 whole entry): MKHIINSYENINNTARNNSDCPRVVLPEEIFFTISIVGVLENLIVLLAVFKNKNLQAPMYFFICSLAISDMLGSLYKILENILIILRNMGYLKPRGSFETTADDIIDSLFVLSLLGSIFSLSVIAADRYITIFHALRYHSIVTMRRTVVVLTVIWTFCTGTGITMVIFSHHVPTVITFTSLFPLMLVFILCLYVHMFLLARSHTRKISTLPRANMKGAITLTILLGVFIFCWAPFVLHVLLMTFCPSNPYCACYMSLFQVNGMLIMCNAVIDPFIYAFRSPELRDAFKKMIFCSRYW
T1 sequence (Q8TCY5 whole entry partner): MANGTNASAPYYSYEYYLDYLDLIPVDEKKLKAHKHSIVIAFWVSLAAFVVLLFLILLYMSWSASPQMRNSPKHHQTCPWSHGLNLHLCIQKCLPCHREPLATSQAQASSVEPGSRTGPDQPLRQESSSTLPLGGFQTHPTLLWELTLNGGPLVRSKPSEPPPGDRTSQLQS

CCOc1ccccc1-c1ccc(N2CCN(C(=O)C3(C(F)(F)F)CCC3)C[C@H]2CC)c(C(=O)N[C@@H]2CN3CCC2CC3)n1 [Compound 1, 6-(2-ethoxyphenyl)-3-((R)-2-ethyl-4-(1-(trifluoromethyl)cyclobutane-1-carbonyl)piperazin-1-yl)-N—((S)-quinuclidin-3-yl) picolinamide]
ACTH binding to the receptor (MC2R [1]): potently blocked | Ki (MC2R [1]): < 10 nM | selectivity over other human melanocortin receptor subtypes [2]: > 2900 fold | ACTH-mediated G-protein activation and subsequent cAMP production (MC2R [3]): potently blocked | selectivity for hMC2R over 5-HT1B (5-HT1B receptor): more than 2200 fold | agonist activity against the 5-HT1B receptor (5-HT1B receptor; off-target screen): no agonist activity | antagonist activity against the 5-HT1B receptor (5-HT1B receptor; off-target screen): weak antagonist | primary metabolic pathways involved in metabolic clearance [4]: oxidative metabolism, resulting in formation of hydroxylated and desmethyl metabolites | role of CYP2C8 in catalyzing oxidative metabolism (CYP2C8): may also have a minor contribution | role of CYP2D6 in catalyzing oxidative metabolism (CYP2D6): may also have a minor contribution | role of CYP3A4 in catalyzing oxidative metabolism (CYP3A4): plays a key role | corticosterone secretion after 1 μg/kg ACTH (1-24) ([5]; oral, 3 and 10 mg/kg, male and female rats): dose-dependently suppressed | corticosterone after ACTH administration at 1, 4, 24, and 48 hours after a single dose ([5]; single dose, time course): dose-dependent suppression of corticosterone at 1 and 4 hours only | adrenal gland effect (corticosterone [6]): dose-dependent adrenal gland atrophy | decrease of corticosterone values on Days 1 and 7 (maximum) (corticosterone [6]): ≤ 92% | adrenal gland effect (corticosterone [7]): dose-dependent adrenal gland atrophy | decrease of corticosterone values on Days 1 and 7 (maximum) (corticosterone [7]): ≤ 92% | Angiotensin-II stimulation of aldosterone (aldosterone; during treatment): did not affect | ACTH-stimulated aldosterone levels (aldosterone; in vivo): reduced | Ang-II stimulated aldosterone after discontinuation (aldosterone; [14]): suppressed | sodium and potassium levels after discontinuation (aldosterone; [14]): normal | target organ toxicity finding ([8]; 28-day rat study): foamy macrophages in the lungs | consistency of rat lung findings with drug-induced PLD ([8]; rat lung): not to be consistent with drug-induced PLD | target organ toxicity finding ([9]; 3-month dog study): adrenal and liver atrophy | adrenal gland and liver findings with hydrocortisone supplementation ([9]; dog): mitigated with hydrocortisone supplementation | genotoxic risk [10]: No findings indicating significant genotoxic risk | adverse effects on core organ systems (cardiovascular, central nervous, respiratory) [11]: No findings | effect of food on absorption [12]: minimal effect of food on absorption | adverse event observed during treatment [13]: Glucocorticoid deficiency was observed

From patent publication US20260232657A1, “MELANOCORTIN SUBTYPE-2 RECEPTOR (MC2R) ANTAGONIST FOR THE TREATMENT OF ACTH-DEPENDENT CUSHING'S SYNDROME” (CRINETICS PHARMACEUTICALS, INC., priority 2023, published 2026)
